Tests used:
[1] = xn = mol fraction of the nth substance listed; conditions: 101 kPa, Liquid; for speed of sound: Linear variable-path acoustic interferometer; for mass density: Vibrating tube method
[2] = excess molar enthalpy (molar enthalpy of mixing); xn = mol fraction of the nth substance listed; conditions: 298.15 K, 101 kPa, Liquid, 2-drop calorimetry

Cc1ccccn1 [2-methylpyridine] + CCn1cc[n+](C)c1.F[B-](F)(F)F
[1]
Conditions	mass density, 293.15 K [kg/m3]	mass density, 298.15 K [kg/m3]	mass density, 303.15 K [kg/m3]	mass density, 308.15 K [kg/m3]	speed of sound, 293.15 K [m/s]	speed of sound, 298.15 K [m/s]	speed of sound, 303.15 K [m/s]	speed of sound, 308.15 K [m/s]
x2 = 0.1219	1013.9	1010.93	1006.33	1002.14	1438.3	1415.5	1397.7	1379.6
x2 = 0.1776	1043.45	1040.53	1036.16	1032.07	1457.5	1434.8	1417.2	1400
x2 = 0.2341	1071.82	1068.69	1064.53	1060.5	1478.2	1454.8	1438.3	1422
x2 = 0.2778	1092.45	1089.12	1085.1	1081.18	1494.2	1471	1454.4	1439.1
x2 = 0.3209	1111.76	1108.07	1104.33	1100.37	1509.3	1487.7	1470.8	1455.6
x2 = 0.3721	1133.09	1129.16	1125.57	1121.65	1527.3	1506.4	1490.5	1475.5
x2 = 0.4232	1152.77	1148.64	1145.21	1141.21	1544.8	1525.5	1509	1495
x2 = 0.4727	1170.31	1166.05	1162.72	1158.68	1560	1542.7	1525.2	1513.6
x2 = 0.5217	1186.07	1181.95	1178.63	1174.56	1572.9	1557.7	1540.6	1530.3
x2 = 0.5742	1201.42	1197.47	1194.21	1190.05	1585.5	1572.9	1555.3	1545.9
x2 = 0.6217	1214.02	1210.21	1206.93	1202.85	1595.6	1585	1567.5	1559
x2 = 0.6724	1226.14	1222.71	1219.36	1215.15	1603.9	1596.5	1577.8	1571.1
x2 = 0.7228	1236.96	1233.88	1230.44	1226.27	1609.8	1605.1	1586.2	1581.5
x2 = 0.7725	1246.69	1243.95	1240.41	1236.19	1614.7	1611.1	1592.1	1589
x2 = 0.8216	1255.54	1252.96	1249.32	1245.1	1618.6	1615.5	1596.9	1593.8
x2 = 0.8741	1264.27	1261.73	1257.98	1253.82	1621.8	1618.7	1600.8	1597.4
x2 = 0.9218	1271.82	1269.01	1265.26	1261.08	1624.6	1619.8	1603.5	1598.2
x2 = 0.9319	1273.41	1270.5	1266.74	1262.57	1625.3	1619.6	1604	1598.3

[2]
Conditions	excess molar enthalpy [kcal/mol]
x2 = 0.1132	-0.0261
x2 = 0.1578	-0.0354
x2 = 0.2087	-0.0464
x2 = 0.2467	-0.0538
x2 = 0.2976	-0.0636
x2 = 0.3245	-0.0684
x2 = 0.3789	-0.078
x2 = 0.4235	-0.0852
x2 = 0.4876	-0.0945
x2 = 0.5123	-0.0976
x2 = 0.5734	-0.104
x2 = 0.6145	-0.107
x2 = 0.6634	-0.108
x2 = 0.7145	-0.104
x2 = 0.7856	-0.0953
x2 = 0.8265	-0.086
x2 = 0.8723	-0.0727
x2 = 0.9226	-0.05

From the NIST ThermoML archive (doi:10.1016/j.jct.2012.07.007)
